Series [1] is described as follows: 1,1-diphenyl-2-picryl hydrazyl (DPPH) radical scavenging assay. The format is biochemical. Conditions: for DPPH scavenging activity: 10-200 μM tested, data not shown. As to the method: Then, the scavenging capacity was measured by monitoring the decrease in absorbance at 517 nm by a Thermo Scientific Multiskan GO Microplate Spectrophotometer.
On the technique in general: DPPH is a stable violet radical that fades when it is reduced.

Series [2] has as its system SH-SY5Y ATXN3/Q75-GFP cells. Kind of series: ATXN3/Q75 aggregation assay in retinoic acid-differentiated SH-SY5Y cells. Conditions: one week. The format is cell-based, human. As to the method: Flp-InTM-293 cells derived from human 293 (Invitrogen) were cultured as described above. The isogenic ATXN3/[…]-75 cell line was employed, which was formed from subjecting the Flp-InTM-293 cells to targeting insertion of the pcDNA5/FRT/TO-ATXN3/[…] and […] recombinant plasmids. These cell lines were grown in medium containing 5 μg/mL blasticidin and 100 μg/mL hygromycin (InvivoGen). In addition, the method for culture in establishment of the human SH-SY5Y derived Flp-In host cell line and the formation of the isogenic ATXN3/[…]-75 cell line was the same. […] After that, cells were stained with Hoechst 33342 (0.1 μg/mL) and aggregation percentage was assessed as described.

Series [3] can be described thus: MTT cytotoxicity assay in SH-SY5Y cells. In kind it is cell-based. Conditions: human, one day treatment. Here is the method: (§1) Cells (5×10^4/well in 48-well dishes) were cultivated at 37° C. incubator containing 5% CO2 for 20 hr and treated with different concentrations of the Gardenia jasminoides extract (5-30 mg/mL) or pure compound (100 nM-1 mM). After one day, 20 μL MTT (3,[4,5-dimethylthiazol-2-yl]-2,5-diphenyl-tetrazolium bromide, 5 mg/mL in PBS; Sigma-Aldrich) was added to cells and incubated for 2 hr. The absorbance of the purple formazan dye was measured at 570 nm by a Bio-Tek μQuant Universal Microplate Spectrophotometer.
Background: Tetrazolium assays rely on reduction of a dye to a coloured formazan, in cell work by metabolically active cells.

A short description of series [4]: MTT cytotoxicity assay in HEK-293 cells. The format is cell-based. Conditions: human, one day treatment. Here is the method:
as §1

In the next series the test system is 293 ATXN3/Q75-GFP cells. Kind of series: ATXN3/Q75 aggregation assay in 293 cells (high-content analysis). The format is cell-based, human. To be noted: 8 hr pretreatment, doxycycline and oxaliplatin 6 days. As to the method:
The isogenic ATXN3/[…]-75 cell line was employed, which was formed from subjecting the Flp-InTM-293 cells to targeting insertion of the pcDNA5/FRT/TO-ATXN3/[…] and […] recombinant plasmids. These cell lines were grown in medium containing 5 μg/mL blasticidin and 100 μg/mL hygromycin (InvivoGen). In addition, the method for culture in establishment of the human SH-SY5Y derived Flp-In host cell line and the formation of the isogenic ATXN3/[…]-75 cell line was the same. […] Then doxycycline (10 μg/mL, BD) and oxaliplatin (5 μM, Sigma) were added for 6 days.

A value given as a limit tells only on which side of the number the result lay.

As to `COC(=O)C1=CO[C@@H](O)[C@@H]2C(CO)=CC[C@H]12` [genipin], the DPPH scavenging activity result in series [1] is “no detectable DPPH scavenging activity”. For the same molecule, the “aggregation reduction in ATXN3/Q75 expressed neuronal cells” value (from here on “aggregation reduction in ATXN3/Q75”) in series [2] (500 nM) is 18%. For the same molecule, the IC50 at 1 day in series [3] amounted to 100 µM; in series [4] it was 580 µM.
As for `O=c1c(O)c(-c2ccc(O)cc2)oc2cc(O)cc(O)c12` [kaempferol, reference compound], the EC50 in series [1] (100 μM DPPH, 30 min room temperature) is 27 µM.
In the case of `CC(/C=C/C=C(\C)C(=O)O[C@@H]1O[C@H](CO[C@@H]2O[C@H](CO)[C@@H](O)[C@H](O)[C@H]2O)[C@@H](O)[C@H](O)[C@H]1O)=C\C=C\C=C(C)\C=C\C=C(/C)C(=O)O[C@@H]1O[C@H](CO[C@@H]2O[C@H](CO)[C@@H](O)[C@H](O)[C@H]2O)[C@@H](O)[C@H](O)[C@H]1O` [crocin], in series [2] (100 nM), the “aggregation reduction in ATXN3/Q75” value is 21%. Also, the results for the IC50 at 1 day in series [3] and in series [4] were 970 µM and greater than 1000 µM, respectively. Further, the “ATXN3/Q75 aggregation as compared to untreated cells” value in the series with 293 ATXN3/Q75-GFP cells (at 100 nM) was 81.5%.
Regarding `O=C(CCCCCCC(=O)Nc1ccccc1)NO` [SAHA, suberoylanilide hydroxamic acid, reference compound], the “ATXN3/Q75 aggregation as compared to untreated cells” value in the series with 293 ATXN3/Q75-GFP cells (at 100 nM) was determined as 85.9%.
Take `COC(=O)C1=CO[C@@H](O[C@@H]2O[C@H](CO)[C@@H](O)[C@H](O)[C@H]2O)[C@@H]2C(CO)=CC[C@H]12` [geniposide]: the DPPH scavenging activity result in series [1] was “no detectable DPPH scavenging activity”. Besides, the “aggregation reduction in ATXN3/Q75” value in series [2] (500 nM) was found to be 21%. Moreover, the IC50 at 1 day in series [3] and in series [4] was greater than 1000 µM each time. Also, the “ATXN3/Q75 aggregation as compared to untreated cells” value in the series with 293 ATXN3/Q75-GFP cells (at 500 nM) was found to be 82.3%.

As a reminder, the IC50 is the concentration that inhibits the measured activity by half. Read a low IC50 as greater potency in that assay. For orientation: EC50 means the concentration needed to bring the measured effect to its halfway point. A lower EC50 goes with higher potency in that assay.

Source of the values: patent US20150064287A1, “METHOD FOR TREATING ABNORMAL POLYGLUTAMINE-MEDIATED DISEASES” (NATIONAL TAIWAN NORMAL UNIVERSITY, priority 2013, published 2015).
